From patent publication US11952349B2, “Anti-cancer nuclear hormone receptor-targeting compounds” (Nuvation Bio Inc., priority 2019, dated 2024) come the findings set out here.

Assay [1] addresses T1, AR, cytosol from LnCaP cells (Homo sapiens, UniProt P10275, T878A).
T1 construct: AR in LNCaP cytosol was used; endogenous in cells; host or cells: LNCaP cells (cytosol)
T1 sequence (P10275 1-920 T878A): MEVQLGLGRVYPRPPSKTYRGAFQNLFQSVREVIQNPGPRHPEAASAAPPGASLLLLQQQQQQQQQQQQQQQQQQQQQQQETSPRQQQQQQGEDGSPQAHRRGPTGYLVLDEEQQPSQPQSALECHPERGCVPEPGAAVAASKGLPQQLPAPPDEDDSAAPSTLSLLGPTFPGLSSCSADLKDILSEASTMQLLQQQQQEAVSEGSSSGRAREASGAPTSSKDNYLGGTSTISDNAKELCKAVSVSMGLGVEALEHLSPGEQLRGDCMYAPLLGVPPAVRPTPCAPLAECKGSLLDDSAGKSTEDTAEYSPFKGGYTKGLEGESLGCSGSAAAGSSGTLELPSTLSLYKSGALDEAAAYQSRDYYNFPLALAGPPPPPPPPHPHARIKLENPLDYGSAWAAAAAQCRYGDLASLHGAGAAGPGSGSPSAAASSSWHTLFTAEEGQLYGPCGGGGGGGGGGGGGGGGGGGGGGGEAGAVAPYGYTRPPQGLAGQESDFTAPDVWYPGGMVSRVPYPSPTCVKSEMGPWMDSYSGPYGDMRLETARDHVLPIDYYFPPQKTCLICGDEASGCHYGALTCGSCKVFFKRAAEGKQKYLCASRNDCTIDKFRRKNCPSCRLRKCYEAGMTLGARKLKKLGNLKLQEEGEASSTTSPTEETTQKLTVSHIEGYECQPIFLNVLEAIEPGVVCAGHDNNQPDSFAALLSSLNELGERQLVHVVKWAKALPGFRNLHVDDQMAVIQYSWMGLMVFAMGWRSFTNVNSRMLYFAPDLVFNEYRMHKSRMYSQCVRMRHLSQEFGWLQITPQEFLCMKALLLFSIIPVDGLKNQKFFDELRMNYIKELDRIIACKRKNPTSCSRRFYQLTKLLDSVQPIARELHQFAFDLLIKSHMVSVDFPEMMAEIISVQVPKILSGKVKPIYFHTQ
Briefly: AR binding assay, 3H-R1881 (Biological Example 2). On the procedure: AR binding assay: To assess AR binding, test compound (top dose […], 4 fold serial dilution, 8 point dose response) and control (progesterone) were transferred to the assay plate. Cytosol from LnCaP cells was added to the plate, followed by addition of radiolabeled ^3H-R1881 at a final concentration of 1 nM. The plate was sealed, and the reaction was incubated at 300 rpm at 4° C. for 24 hrs. Radioligand absorption buffer (10 mM Tris-HCl, pH 7.4; 1.5 mM EDTA; 1 mM DTT; 0.25% charcoal; 0.0025% dextran) was then added to the plate, mixed, and incubated at 4° C. for 15 minutes. The plate was then centrifuged at 3000 rpm for 30 minutes at 4° C. The supernatant was transferred to the scint-tube and Tri-carb was used for scintillation counting. The data was analyzed using GraphPadPrism v5.0 and binding IC50 was determined as the concentration where 50% inhibition of radioligand binding was observed.

The subject of another assay is LNCap cells. Put plainly: Cell viability assay (CellTiterGlo, 6 days) LNCap. Format: cell-based. The conditions noted are these: Homo sapiens, 144 h. On the procedure: Cell viability assay: LNCap, 22Rv1, and T47D cells were seeded at a density of 1500-2000 cells/well in 96 well plates, and a ‘T0’ (timepoint 0) was included along with the assay plate. The plates were then incubated at 37° C., 5% CO2 in a cell culture incubator overnight. On the next day, the ‘T0’ plate was assayed using CellTiterGlo (Promega, Inc) according to the manufacturer's instructions. The appropriate compounds were diluted in DMSO and added to the assay plate (final DMSO concentration of 0.2%) on the next day. The assay plates were incubated for 6 days at 37° C., 5% CO2. After the incubation period, the plates were assayed using CellTiterGlo (Promega, Inc) according to the manufacturer's instructions and luminescence was read on the EnVision plate reader. Inhibition the tested compounds was determined by the following formula: Inhibition rate (%)=(1−(RLU compound−RLU day0)/(RLU control−RLU day0))*100%. GraphPadPrism was used to analyze the data and determine absolute IC50 values.
On the technique in general: ATP-based viability assays read luminescence as a measure of living cells.

Where [2] appears, read: Table 8, 3H-R1881 1 nM, read-out: AR binding.

Structures are written as SMILES. Where two headings read alike, the source gives them in different places.

As to `C[C@@]12CCC(=O)C[C@H]1CC[C@H]1[C@H]2CC[C@]2(C)[C@@H]1CC[C@H]2OCCCCCCNC(=O)c1cc(Cc2n[nH]c(=O)c3ccccc23)ccc1F` (stereo in doubt) [Compound 1426, N-(6-((5R,8S,9R,10R,13R,14R,17R)-10,13-dimethyl-3-oxohexadecahydro-1H-cyclopenta[a]phenanthren-17-yloxy)hexyl)-2-fluoro-5-((4-oxo-3,4-dihydrophthalazin-1-yl)methyl)benzamide], the IC50 in assay [1] lay in the range of 100 to 1000 nM; in the assay with LNCap cells (Table 7), 1000 to 10000 nM.

`CC#C[C@]1(O)CC[C@H]2[C@@H]3CCC4=CC(=O)CCC4=C3[C@@H](c3ccc(N(C)CCCCCC(=O)N4CCN(C(=O)c5cc(Cc6n[nH]c(=O)c7ccccc67)ccc5F)CC4)cc3)C[C@@]21C` [Compound 135, 4-(4-fluoro-3-(4-(6-((4-((8S,11R,13S,14S,17S)-17-hydroxy-13-methyl-3-oxo-17-(prop-1-ynyl)-2,3,6,7,8,11,12,13,14,15,16,17-dodecahydro-1H-cyclopenta[a]phenanthren-11-yl)phenyl)(methyl)amino)hexanoyl)piperazine-1-carbonyl)benzyl)phthalazin-1(2H)-one]: the IC50 in assay [1] (setting [2]) fell in the range of 10 to 100 nM; with LNCap cells (Table 8), 100 to 1000 nM.

In the case of `C[C@]12C[C@H](CCCCCC(=O)N3CCN(C(=O)c4cc(Cc5n[nH]c(=O)c6ccccc56)ccc4F)CC3)C3=C4CCC(=O)C=C4CC[C@H]3[C@@H]1CCC2O` (stereo partly drawn) [Compound 138, 4-(4-fluoro-3-(4-(6-((8S,11S,13S,14S)-17-hydroxy-13-methyl-3-oxo-2,3,6,7,8,11,12,13,14,15,16,17-dodecahydro-1H-cyclopenta[a]phenanthren-11-yl)hexanoyl)piperazine-1-carbonyl)benzyl)phthalazin-1(2H)-one], the values for the IC50 (in assay [1]; in the assay on LNCap cells (Table 7)) were 10 to 100 nM and 100 to 1000 nM, respectively.

As for `Cn1ncnc1C1c2n[nH]c(=O)c3cc(F)cc(c23)N[C@@H]1c1ccc(NC(=O)CCCCCO[C@@H]2CC[C@H]3[C@@H]4CC[C@H]5CCCC[C@]5(C)[C@H]4CC[C@]23C)cc1` (stereo partly drawn) [Compound 1128, 6-((5R,8R,9S,10S,13S,14S,17R)-10,13-dimethylhexadecahydro-1H-cyclopenta[a]phenanthren-17-yloxy)-N-(4-((8S)-5-fluoro-9-(1-methyl-1H-1,2,4-triazol-5-yl)-3-oxo-3,7,8,9-tetrahydro-2H-pyrido[4,3,2-de]phthalazin-8-yl)phenyl)hexanamide], the IC50 was 1000 to 10000 nM in assay [1] (Table 7, 3H-R1881 1 nM, read-out: AR binding) and 100 to 1000 nM in the assay on LNCap cells (Table 7).

On to `CC(=O)O[C@]1(C(C)=O)CC[C@H]2[C@@H]3CCC4=CC(=O)CCC4=C3[C@@H](c3ccc(N(C)CCCCCC(=O)N4CCN(C(=O)c5cc(Cc6n[nH]c(=O)c7ccccc67)ccc5F)CC4)cc3)C[C@@]21C` [Compound 1378, (8S,11R,13S,14S,17R)-17-acetyl-11-(4-((6-(4-(2-fluoro-5-((4-oxo-3,4-dihydrophthalazin-1-yl)methyl)benzoyl)piperazin-1-yl)-6-oxohexyl)(methyl)amino)phenyl)-13-methyl-3-oxo-2,3,6,7,8,11,12,13,14,15,16,17-dodecahydro-1H-cyclopenta[a]phenanthren-17-yl acetate], for which the IC50 in assay [1] (setting [2]) is less than 10 nM; with LNCap cells (Table 8), 100 to 1000 nM.

As to `CC(=O)O[C@]1(C(C)=O)CC[C@H]2[C@@H]3CCC4=CC(=O)CCC4=C3[C@@H](c3ccc(N(C)CCCCCC(=O)NCCOCCOCC(=O)N4CCN(C(=O)c5cc(Cc6n[nH]c(=O)c7ccccc67)ccc5F)CC4)cc3)C[C@@]21C` [Compound 1384, (8S,11R,13S,14S,17R)-17-acetyl-11-(4-((6-(2-(2-(2-(4-(2-fluoro-5-((4-oxo-3,4-dihydrophthalazin-1-yl)methyl)benzoyl)piperazin-1-yl)-2-oxoethoxy)ethoxy)ethylamino)-6-oxohexyl)(methyl)amino)phenyl)-13-methyl-3-oxo-2,3,6,7,8,11,12,13,14,15,16,17-dodecahydro-1H-cyclopenta[a]phenanthren-17-yl acetate], the IC50 in assay [1] (setting [2]) is less than 10 nM; in the assay with LNCap cells (Table 8), 1000 to 10000 nM.

Take `C[C@]12CC[C@H]3[C@@H](CCC4=CC(=O)CC[C@@]43C)[C@@H]1CC[C@@H]2C(=O)COCCCCCC(=O)N1CCN(C(=O)c2cc(Cc3n[nH]c(=O)c4ccccc34)ccc2F)CC1` [Compound 1386, 4-(3-(4-(6-(2-((8S,9S,10R,13S,14S,17S)-10,13-dimethyl-3-oxo-2,3,6,7,8,9,10,11,12,13,14,15,16,17-tetradecahydro-1H-cyclopenta[a]phenanthren-17-yl)-2-oxoethoxy)hexanoyl)piperazine-1-carbonyl)-4-fluorobenzyl)phthalazin-1(2H)-one]: the IC50 in assay [1] (setting [2]) lay within 10 to 100 nM; with LNCap cells (Table 8), 100 to 1000 nM.

As for `C[C@]12Cc3cn[nH]c3C[C@@H]1CC[C@@H]1[C@@H]2CC[C@]2(C)[C@@H](OCCCCCC(=O)N3CCN(C(=O)c4cc(Cc5n[nH]c(=O)c6ccccc56)ccc4F)CC3)CC[C@@H]12` [Compound 1394, 4-(3-(4-(6-(((1S,3aS,3bR,5aS,10aS,10bS,12aS)-10a,12a-dimethyl-1,2,3,3a,3b,4,5,5a,6,7,10,10a,10b,11,12,12a-hexadecahydrocyclopenta[5,6]naphtho[1,2-f]indazol-1-yl)oxy)hexanoyl)piperazine-1-carbonyl)-4-fluorobenzyl)phthalazin-1(2H)-one], the IC50 (in assay [1]; in the assay with LNCap cells (Table 7)) was 100 to 1000 nM in each case.

Turning to `CC#C[C@]1(O)CC[C@H]2[C@@H]3CCC4=CC(=O)CCC4=C3[C@@H](c3ccc(N(C)CCCCCC(=O)NCCOCCOCC(=O)N4CCN(C(=O)c5cc(Cc6n[nH]c(=O)c7ccccc67)ccc5F)CC4)cc3)C[C@@]21C` [Compound 1429, N-(2-(2-(2-(4-(2-fluoro-5-((4-oxo-3,4-dihydrophthalazin-1-yl)methyl)benzoyl)piperazin-1-yl)-2-oxoethoxy)ethoxy)ethyl)-6-((4-((8S,11R,13S,14S,17S)-17-hydroxy-13-methyl-3-oxo-17-(prop-1-ynyl)-2,3,6,7,8,11,12,13,14,15,16,17-dodecahydro-1H-cyclopenta[a]phenanthren-11-yl)phenyl)(methyl)amino)hexanamide], the values for the IC50 (in assay [1] (setting [2]); with LNCap cells (Table 8)) were 10 to 100 nM and greater than 10000 nM, respectively.
